One data set has as its system Aureobasidium pullulans. The data set can be described thus: Minimum inhibitory concentration (MIC), serial dilution in broth, Aureobasidium pullulans. The class given is cell-based. The conditions noted are these: 168 h, read-out: MIC, B = Aureobasidium pullulans. The procedure:
(§1) Solutions of the experimental compounds in dimethyl sulfoxide and an aqueous solution of sodium pyrithione were serially diluted in nutrient broth (Tryptic Soy Broth for bacteria and Sabouraud Dextrose Broth for fungi) in microtiter plates. Equal volumes of a broth suspension of bacteria (10^6 CFU/ml) or fungi (10^5 cells or spores/ml) were added to each dilution, and the plates were incubated at 37° C. (bacteria and yeast) or 28° C. (molds). Bacteria, yeast, and molds were incubated two, five, and seven days respectively before determining the highest inhibitory dilution.

The subject of another data set is Fusarium. The data set can be described thus: Minimum inhibitory concentration (MIC), serial dilution in broth, Fusarium. The class given is cell-based. The conditions noted are these: 168 h, read-out: MIC, D = Fusarium. The procedure: as §1
The test system of a further data set is Candida albicans. In words: Minimum inhibitory concentration (MIC), serial dilution in broth, Candida albicans. Format: cell-based. The conditions noted are these: 120 h, read-out: MIC, A = Candida albicans. The procedure:
as §1

In a further data set the test system is Aspergillus niger. In words: Minimum inhibitory concentration (MIC), serial dilution in broth, Aspergillus niger. The class given is cell-based. Particulars: 168 h, read-out: MIC, C = Aspergillus niger. The protocol:
as §1

Data set [1] can be described thus: UV stability (photolysis in aqueous solution, immersion well photochemical apparatus). Format: physicochemical. The protocol:
The UV stability of IIa was evaluated using a immersion well photochemical apparatus equipped with a Hanovia 450 Watt medium pressure lamp. An aqueous solution (100 ppm in KH2 PO4 buffer pH=7) was irradiated at 25° C. with air agitation for a period of 110 minutes. The rate of photolysis was monitored by UV spectroscopy. Aliquots were taken through a side port of the apparatus into an amber vial and the absorption at 325 nm was measured. A sodium pyrithione aqueous solution (i.e., sodium OMADINE® biocide) was irradiated similarly for comparative purposes.

Where [2] appears, read: fungi, Sabouraud Dextrose Broth, molds: 28° C., seven days.
Where [3] appears, read: molds: 28° C., seven days, Sabouraud Dextrose Broth.
The mark [4] stands for this setting: yeast, 37° C., five days, Sabouraud Dextrose Broth.

≈ marks a conversion by molar mass, not a printed value. Read-outs that look alike come from different tables or passages of the source.

Consider `C=CC(=O)On1c(=S)n(C)c(=O)c2ccccc21` [Compound IIj], for which the MIC came to 4 µg/mL (≈ 15.3 µM) with Aureobasidium pullulans (setting [2]), 16 µg/mL (≈ 61 µM) with Fusarium (setting [3]), 4 µg/mL (≈ 15.3 µM) in the data set with Candida albicans (setting [4]) and 8 µg/mL (≈ 30.5 µM) in the data set on Aspergillus niger (setting [3]).

For `O=c1c2ccccc2n(O)c(=S)n1-c1ccccc1` [IIe], the MIC with Aureobasidium pullulans (setting [2]) worked out at 16 µg/mL (≈ 59.2 µM); in the data set with Fusarium (setting [3]), 64 µg/mL (≈ 237 µM); with Candida albicans (setting [4]) it was 16 µg/mL (≈ 59.2 µM); with Aspergillus niger (setting [3]), 32 µg/mL (≈ 118 µM).

As for `Cn1c(=O)c2ccccc2n(O)c1=S.[Na]` [IIa-Na, 1-hydroxy-3-methyl-2-thioxo-1,2-dihydroquinazoline-4(3H)-one, sodium salt], the MIC in the data set with Fusarium was 4 µg/mL.

Turning to `CNC(=S)N(O)c1ccc(C)cc1C(=O)OC` [Id], the minimal inhibitory concentration (MIC) with Aureobasidium pullulans (setting [2]) was 8 µg/mL (≈ 31.5 µM); with Fusarium (setting [3]), 512 µg/mL (≈ 2010 µM); with Candida albicans (setting [4]) it was 8 µg/mL (≈ 31.5 µM); in the data set on Aspergillus niger (setting [3]), 8 µg/mL (≈ 31.5 µM).

Regarding `CNC(=S)N(O)c1cc(Cl)ccc1C(=O)OC` [Ic], the MIC was 4 µg/mL (≈ 14.6 µM) in the data set with Aureobasidium pullulans (setting [2]), 128 µg/mL (≈ 466 µM) in the data set with Fusarium (setting [3]), under 2 µg/mL in the data set on Candida albicans (setting [4]) and 8 µg/mL (≈ 29.1 µM) with Aspergillus niger (setting [3]).

`C=C(C)C(=O)On1c(=S)n(C)c(=O)c2ccccc21` [IIl]: the MIC in the data set with Aureobasidium pullulans (setting [2]) stood at 4 µg/mL (≈ 14.5 µM); with Fusarium (setting [3]), 512 µg/mL (≈ 1850 µM); with Candida albicans (setting [4]), 128 µg/mL (≈ 463 µM); in the data set with Aspergillus niger (setting [3]), 32 µg/mL (≈ 116 µM).

`C=CCn1c(=O)c2ccccc2n(O)c1=S` [IIf]: the minimum inhibitory concentration (MIC) in the data set with Aureobasidium pullulans (setting [2]) is 16 µg/mL (≈ 68.3 µM); with Fusarium (setting [3]), 8 µg/mL (≈ 34.1 µM); in the data set on Candida albicans (setting [4]) it was 4 µg/mL (≈ 17.1 µM); in the data set on Aspergillus niger (setting [3]), 16 µg/mL (≈ 68.3 µM).

In the case of `CC(=O)On1c(=S)n(C)c(=O)c2ccccc21` [IIi, 1-ACETOYLOXY-3-METHYL-2-THIOXO-1,2-DIHYDROQUINAZOLINE-4(3H)-ONE], the MIC in the data set on Candida albicans (setting [4]) is 2 µg/mL (≈ 7.99 µM).

On to `CCOC(=O)c1ccccc1N(O)C(=S)NC` [Ib], for which the MIC with Aureobasidium pullulans (setting [2]) came to 8 µg/mL (≈ 31.5 µM); in the data set on Fusarium (setting [3]), 128 µg/mL (≈ 503 µM); in the data set with Candida albicans (setting [4]), 8 µg/mL (≈ 31.5 µM); with Aspergillus niger (setting [3]), 8 µg/mL (≈ 31.5 µM).

Regarding `COn1c(=S)n(C)c(=O)c2ccccc21` [IIh], the MIC with Aureobasidium pullulans (setting [2]) came to 512 µg/mL (≈ 2300 µM); in the data set on Fusarium (setting [3]) it was 512 µg/mL (≈ 2300 µM); with Candida albicans (setting [4]), 256 µg/mL (≈ 1150 µM); with Aspergillus niger (setting [3]), 512 µg/mL (≈ 2300 µM).

For the compound `Cn1c(=O)c2ccccc2n(OC(=O)c2ccccc2)c1=S` [IIk], the MIC in the data set with Aureobasidium pullulans (setting [2]) was 256 µg/mL (≈ 820 µM); with Fusarium (setting [3]) it was 512 µg/mL (≈ 1640 µM); in the data set with Candida albicans (setting [4]), 512 µg/mL (≈ 1640 µM); in the data set on Aspergillus niger (setting [3]), 512 µg/mL (≈ 1640 µM).

Turning to `Cn1c(=O)c2ccc(Cl)cc2n(O)c1=S` [IIc], the MIC in the data set with Aureobasidium pullulans (setting [2]) is under 2 µg/mL; in the data set with Fusarium (setting [3]), 64 µg/mL (≈ 264 µM); in the data set with Candida albicans (setting [4]) it was under 2 µg/mL; with Aspergillus niger (setting [3]) it was 4 µg/mL (≈ 16.5 µM).

Turning to `CNC(=O)On1c(=S)n(C)c(=O)c2ccccc21` [IIn, 1-N-METHYLCARBAMATE-3-METHYL-2-THIO-1,2-DIHYDROQUINAZOLINE-4(3H)-ONE], the MIC with Aureobasidium pullulans was found to be 8 µg/mL (≈ 30.2 µM); in the data set with Fusarium, 16 µg/mL (≈ 60.3 µM); in the data set on Candida albicans, 4 µg/mL (≈ 15.1 µM); with Aspergillus niger it was 8 µg/mL (≈ 30.2 µM).

`CCOC(=O)c1ccccc1N(O)C(=S)Nc1ccccc1` [Ie]: the MIC was determined as 32 µg/mL (≈ 101 µM) with Aureobasidium pullulans (setting [2]), 64 µg/mL (≈ 202 µM) in the data set on Fusarium (setting [3]), 16 µg/mL (≈ 50.6 µM) with Candida albicans (setting [4]) and 64 µg/mL (≈ 202 µM) with Aspergillus niger (setting [3]).

Consider `Cn1c(=O)c2ccccc2n(O)c1=S` [Compound IIa, 1-HYDROXY-3-METHYL-2-THIOXO-1,2-DIHYDROQUINAZOLINE-4(3H)-ONE], for which the MIC was under 2 µg/mL in the data set on Aureobasidium pullulans (setting [2]), 128 µg/mL (≈ 615 µM) with Fusarium (setting [3]), under 2 µg/mL with Candida albicans (setting [4]) and under 2 µg/mL in the data set with Aspergillus niger (setting [3]). Moreover, the half-life in data set [1] (first order, 100 ppm in KH2PO4 buffer pH=7, 25° C., 450 Watt medium pressure lamp, absorption at 325 nm, read-out: photodecomposition T1/2) stood at 55 min.

For `C=CCNC(=S)N(O)c1ccccc1C(=O)OCC` [If], the MIC with Aureobasidium pullulans (setting [2]) came to 16 µg/mL (≈ 57.1 µM); with Fusarium (setting [3]) it was 16 µg/mL (≈ 57.1 µM); in the data set with Candida albicans (setting [4]), 4 µg/mL (≈ 14.3 µM); in the data set on Aspergillus niger (setting [3]) it was 16 µg/mL (≈ 57.1 µM).

For the compound `On1ccccc1=S` [sodium pyrithione, reference compound], in data set [1] (aqueous solution, same conditions as IIa (pH=7, 25° C., 450 Watt lamp)), the “photodecomposition time (decomposed in)” value is 15 s.

Take `O=c1[nH]c(=S)n(O)c2ccccc12` [Compound IIg]: the MIC is 128 µg/mL (≈ 659 µM) with Aureobasidium pullulans (setting [2]), 512 µg/mL (≈ 2640 µM) in the data set on Fusarium (setting [3]), 64 µg/mL (≈ 330 µM) with Candida albicans (setting [4]) and 1020 µg/mL (≈ 5270 µM) with Aspergillus niger (setting [3]).

With `Cc1ccc2c(c1)c(=O)n(C)c(=S)n2O` [IId], the MIC is 4 µg/mL (≈ 18 µM) with Aureobasidium pullulans (setting [2]), 128 µg/mL (≈ 576 µM) with Fusarium (setting [3]), under 2 µg/mL in the data set with Candida albicans (setting [4]) and under 2 µg/mL in the data set with Aspergillus niger (setting [3]).

For the compound `Cn1c(=O)c2ccccc2n(OC(=O)O)c1=S` [IIm], the MIC came out at 8 µg/mL (≈ 31.7 µM) in the data set with Aureobasidium pullulans (setting [2]), 16 µg/mL (≈ 63.4 µM) in the data set with Fusarium (setting [3]), 4 µg/mL (≈ 15.9 µM) in the data set with Candida albicans (setting [4]) and 8 µg/mL (≈ 31.7 µM) with Aspergillus niger (setting [3]).

Broadly, the MIC is the smallest concentration in the dilution series that meets the test's criterion for growth inhibition.
